Where “and” joins values, the source holds several entries; their conditions need not be identical. Equal values may be shown once. Inconclusive results and toxic doses are left out. No stated cut-off is given here; in the data, active means T/C of 150% or more; inactive means T/C below 125%.
System: L1210 leukemia ip in BDF1 mice, survival T/C
Test: NCI In Vivo Anticancer Drug Screen. Data for tumor model L1210 Leukemia (intraperitoneal) in B6D2F1 (BDF1) mice
Settings: higher = longer survival
Procedure, shortened: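 In this screen, tumor-bearing mice given compound are compared to those given vehicle, and their survival values are reported as a treated-to-control quotient.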

[1] = endpoint: mean survival time, dose: 100.0 mg/kg/injection, schedule: Q04DX003 (ip), vehicle: saline with Tween-80
[2] = endpoint: mean survival time, dose: 200.0 mg/kg/injection, schedule: Q04DX003 (ip), vehicle: saline with Tween-80
[3] = endpoint: mean survival time, dose: 400.0 mg/kg/injection, schedule: Q04DX003 (ip), vehicle: saline with Tween-80
[4] = endpoint: mean survival time, dose: 25.0 mg/kg/injection, schedule: Q04DX003 (ip), vehicle: saline with Tween-80
[5] = endpoint: mean survival time, dose: 50.0 mg/kg/injection, schedule: Q04DX003 (ip), vehicle: saline with Tween-80
[6] = endpoint: mean survival time, dose: 100.0 mg/kg/injection, schedule: Q04DX003 (ip), vehicle: saline
[7] = endpoint: mean survival time, dose: 200.0 mg/kg/injection, schedule: Q04DX003 (ip), vehicle: saline
[8] = endpoint: mean survival time, dose: 400.0 mg/kg/injection, schedule: Q04DX003 (ip), vehicle: saline
[9] = endpoint: mean survival time, dose: 100.0 mg/kg/injection, schedule: Q04DX003 (ip), vehicle: Klucel (hydroxypropylcellulose) (HPC)
[10] = endpoint: mean survival time, dose: 100.0 mg/kg/injection, schedule: Q01DX001 (ip), vehicle: saline
[11] = endpoint: mean survival time, dose: 200.0 mg/kg/injection, schedule: Q01DX001 (ip), vehicle: saline
[12] = endpoint: mean survival time, dose: 400.0 mg/kg/injection, schedule: Q01DX001 (ip), vehicle: saline

Measured: T/C

NC(=S)c1ccc(S(=O)(=O)Nc2cccc(Br)c2)cc1
inactive: [1] 103 % of control | [2] 103 % of control | [3] 97 % of control

CC(=O)NC1CCc2ccccc2-c2cccc(=O)cc21 (stereo not drawn)
inactive: endpoint: mean survival time, dose: 0.1 mg/kg/injection, schedule: Q01DX009 (ip), vehicle: Klucel (hydroxypropylcellulose) (HPC) 108 % of control | endpoint: mean survival time, dose: 0.2 mg/kg/injection, schedule: Q01DX009 (ip), vehicle: Klucel (hydroxypropylcellulose) (HPC) 113 % of control and 124 % of control | endpoint: mean survival time, dose: 0.39 mg/kg/injection, schedule: Q01DX009 (ip), vehicle: Klucel (hydroxypropylcellulose) (HPC) 118 % of control | endpoint: mean survival time, dose: 0.78 mg/kg/injection, schedule: Q01DX009 (ip), vehicle: Klucel (hydroxypropylcellulose) (HPC) 86 % of control | endpoint: mean survival time, dose: 0.78 mg/kg/injection, schedule: Q01DX009 (ip), vehicle: saline 116 % of control

O=C(OCC1CC1)c1cc([N+](=O)[O-])cc([N+](=O)[O-])c1
inactive: [4] 108 % of control | [5] 106 % of control | [1] 101 % of control

O=[N+]([O-])CC(O)C(O)C(O)C(O)CO (stereo not drawn)
inactive: [6] 102 % of control | [7] 102 % of control | [8] 102 % of control

O=P(NCCCO)(OCc1ccccc1)N(CCCl)CCCl (stereo not drawn)
inactive: endpoint: mean survival time, dose: 62.5 mg/kg/injection, schedule: Q01DX010 (ip), vehicle: saline 87 % of control | endpoint: mean survival time, dose: 125.0 mg/kg/injection, schedule: Q01DX010 (ip), vehicle: saline 98 % of control | endpoint: mean survival time, dose: 250.0 mg/kg/injection, schedule: Q01DX010 (ip), vehicle: saline 90 % of control | endpoint: mean survival time, dose: 250.0 mg/kg/injection, schedule: Q01DX Z (ip), vehicle: saline 95 % of control | endpoint: mean survival time, dose: 500.0 mg/kg/injection, schedule: Q01DX Z (ip), vehicle: saline 95 % of control | endpoint: mean survival time, dose: 750.0 mg/kg/injection, schedule: Q01DX Z (ip), vehicle: saline 118 % of control

C=CCSC(=S)N(C)C
inactive: endpoint: mean survival time, dose: 25.0 mg/kg/injection, schedule: Q04DX002 (ip), vehicle: saline 101 % of control | endpoint: mean survival time, dose: 50.0 mg/kg/injection, schedule: Q04DX002 (ip), vehicle: saline 89 % of control

CCOC(=O)CC/C(=C/c1ccccc1)[N+](=O)[O-]
inactive: [4] 97 % of control and 104 % of control | [5] 94 % of control and 98 % of control | [1] 106 % of control and 107 % of control and 121 % of control | [2] 89 % of control

S=c1c2[nH]cnc2ncn1C1CCCC1
inactive: endpoint: mean survival time, dose: 5.0 mg/kg/injection, schedule: Q01DX001 (ip), vehicle: other 100 % of control | endpoint: mean survival time, dose: 10.0 mg/kg/injection, schedule: Q01DX001 (ip), vehicle: other 106 % of control | endpoint: mean survival time, dose: 15.0 mg/kg/injection, schedule: Q01DX009 (ip), vehicle: saline with Tween-80 119 % of control | endpoint: mean survival time, dose: 20.0 mg/kg/injection, schedule: Q01DX001 (ip), vehicle: other 103 % of control | endpoint: mean survival time, dose: 33.5 mg/kg/injection, schedule: Q01DX009 (ip), vehicle: saline with Tween-80 104 % of control

O=P(O)(O)c1cccc(Oc2ccccc2)c1
inactive: endpoint: mean survival time, dose: 75.0 mg/kg/injection, schedule: Q01DX001 (ip), vehicle: saline 100 % of control | endpoint: mean survival time, dose: 150.0 mg/kg/injection, schedule: Q01DX001 (ip), vehicle: saline 100 % of control

CC(=O)S[C@@H]1CC2=CC(=O)CC[C@]2(C)[C@H]2CC[C@@]3(C)[C@@H](CC[C@@]34CCC(=O)O4)[C@H]12
inactive: endpoint: mean survival time, dose: 45.0 mg/kg/injection, schedule: Q01DX009 (sc), vehicle: steriod suspending solution 107 % of control | endpoint: mean survival time, dose: 90.0 mg/kg/injection, schedule: Q01DX009 (sc), vehicle: steriod suspending solution 102 % of control | [9] 90 % of control | endpoint: mean survival time, dose: 180.0 mg/kg/injection, schedule: Q01DX009 (sc), vehicle: steriod suspending solution 100 % of control | endpoint: median survival time, dose: 100.0 mg/kg/injection, schedule: Q01DX001 (ip), vehicle: water 97 % of control | endpoint: median survival time, dose: 100.0 mg/kg/injection, schedule: Q01DX009 (sc), vehicle: steriod suspending solution 101 % of control | endpoint: median survival time, dose: 200.0 mg/kg/injection, schedule: Q01DX001 (ip), vehicle: water 91 % of control | endpoint: median survival time, dose: 200.0 mg/kg/injection, schedule: Q01DX009 (sc), vehicle: steriod suspending solution 95 % of control | endpoint: median survival time, dose: 400.0 mg/kg/injection, schedule: Q01DX001 (ip), vehicle: water 97 % of control | endpoint: median survival time, dose: 400.0 mg/kg/injection, schedule: Q01DX009 (sc), vehicle: steriod suspending solution 96 % of control

CCCCCCCNN=C(N)N
inactive: [10] 98 % of control | [6] 111 % of control | [11] 98 % of control | [7] 95 % of control | [12] 97 % of control | [8] 117 % of control

CCN(CC)CCN(CC(=O)O)CC(=O)O
inactive: [10] 108 % of control and 98 % of control | [11] 90 % of control and 102 % of control | [12] 96 % of control and 102 % of control

COC1OC(CN2CC2)C2OC(C)(C)OC12 (stereo not drawn)
inactive: endpoint: mean survival time, dose: 75.0 mg/kg/injection, schedule: Q01DX001 (ip), vehicle: carboxymethylcellulose (CMC) 102 % of control

COC(=O)CCSC(c1ccccc1)(c1ccccc1)c1ccccc1
inactive: endpoint: mean survival time, dose: 100.0 mg/kg/injection, schedule: Q01DX009 (ip), vehicle: Klucel (hydroxypropylcellulose) (HPC) 104 % of control | [9] 96 % of control | endpoint: mean survival time, dose: 200.0 mg/kg/injection, schedule: Q01DX009 (ip), vehicle: Klucel (hydroxypropylcellulose) (HPC) 94 % of control | endpoint: mean survival time, dose: 200.0 mg/kg/injection, schedule: Q04DX003 (ip), vehicle: Klucel (hydroxypropylcellulose) (HPC) 93 % of control | endpoint: mean survival time, dose: 400.0 mg/kg/injection, schedule: Q01DX009 (ip), vehicle: Klucel (hydroxypropylcellulose) (HPC) 100 % of control | endpoint: mean survival time, dose: 400.0 mg/kg/injection, schedule: Q04DX003 (ip), vehicle: Klucel (hydroxypropylcellulose) (HPC) 93 % of control

c1ccc(-c2nc(-c3ccccc3)c(-c3ccccc3)nc2-c2ccccc2)cc1
inactive: endpoint: mean survival time, dose: 100.0 mg/kg/injection, schedule: Q01DX001 (ip), vehicle: gum acacia 89 % of control | endpoint: mean survival time, dose: 200.0 mg/kg/injection, schedule: Q01DX001 (ip), vehicle: gum acacia 91 % of control | endpoint: mean survival time, dose: 400.0 mg/kg/injection, schedule: Q01DX001 (ip), vehicle: gum acacia 86 % of control

CC(C)CCCC(C)C1CCC2C3CCC4CC(N5CCCC5)=CCC4(C)C3CCC12C (stereo not drawn)
inactive: endpoint: mean survival time, dose: 75.0 mg/kg/injection, schedule: Q04DX003 (sc), vehicle: steriod suspending solution 96 % of control | endpoint: mean survival time, dose: 150.0 mg/kg/injection, schedule: Q04DX003 (sc), vehicle: steriod suspending solution 96 % of control | endpoint: mean survival time, dose: 300.0 mg/kg/injection, schedule: Q04DX003 (sc), vehicle: steriod suspending solution 102 % of control

O=S1(=O)CC2C1C1(Cl)C(Cl)=C(Cl)C2(Cl)C1(Cl)Cl (stereo not drawn)
inactive: endpoint: mean survival time, dose: 50.0 mg/kg/injection, schedule: Q01DX001 (ip), vehicle: carboxymethylcellulose (CMC) 100 % of control | endpoint: mean survival time, dose: 100.0 mg/kg/injection, schedule: Q01DX001 (ip), vehicle: carboxymethylcellulose (CMC) 91 % of control | endpoint: mean survival time, dose: 200.0 mg/kg/injection, schedule: Q01DX001 (ip), vehicle: carboxymethylcellulose (CMC) 96 % of control | endpoint: mean survival time, dose: 400.0 mg/kg/injection, schedule: Q01DX001 (ip), vehicle: carboxymethylcellulose (CMC) 96 % of control

O=C(N[C@@H](c1ccccc1)[C@H](N=Cc1ccccc1)c1ccccc1)c1ccccc1
inactive: endpoint: mean survival time, dose: 50.0 mg/kg/injection, schedule: Q01DX009 (ip), vehicle: saline 93 % of control | endpoint: mean survival time, dose: 50.0 mg/kg/injection, schedule: Q04DX003 (ip), vehicle: saline 95 % of control | endpoint: mean survival time, dose: 100.0 mg/kg/injection, schedule: Q01DX009 (ip), vehicle: saline 90 % of control | [6] 86 % of control and 92 % of control | endpoint: mean survival time, dose: 200.0 mg/kg/injection, schedule: Q01DX009 (ip), vehicle: saline 87 % of control | [7] 94 % of control | endpoint: mean survival time, dose: 400.0 mg/kg/injection, schedule: Q01DX009 (ip), vehicle: saline 95 % of control and 87 % of control | [8] 86 % of control and 92 % of control

C1CC2CCCC3CC(B4OCCO4)CC(C1)C23 (stereo not drawn) (tested in a mixture with another compound)
inactive: endpoint: mean survival time, dose: 100.0 mg/kg/injection, schedule: Q01DX009 (ip), vehicle: other 101 % of control | [1] 97 % of control | endpoint: mean survival time, dose: 200.0 mg/kg/injection, schedule: Q01DX009 (ip), vehicle: other 105 % of control | [2] 92 % of control | endpoint: mean survival time, dose: 400.0 mg/kg/injection, schedule: Q01DX009 (ip), vehicle: other 108 % of control | [3] 106 % of control
